Results taken from patent publication US20260207569A1, “LPA1 ANTAGONISTS FOR TREATING INTERSTITIAL LUNG DISEASE” (Bristol-Myers Squibb Company, priority 2022, published 2026).
Entries after “also recorded” stand apart in the source; their conditions may differ.

Key:
Assay type in all cases: in vivo, human
participants with IPF = test: Phase 2 IPF cohort efficacy: rate of change in ppFVC / FVC to Week 26
Procedure: (§1) A total of 278 participants with IPF were randomized and 276 participants were treated as of […] analyses data cut-off (4 Aug. 2022). Male and female participants ≥40 years of age with IPF and percent predicted forced vital capacity (ppFVC) ≥40% and percent predicted DLCO (ppDLCO) ≥25%; diagnosed within 7 years of screening; having a centrally-read chest HRCT obtained at screening that was consistent with UIP or probable UIP, or having a lung biopsy consistent with UIP, were eligible to enter the study. The mean baseline ppFVC for all subjects was 76.5%. In the primary IPF cohort, participants were randomized (1:1:1) to receive 30 mg or 60 mg Compound A or placebo (PBO) twice daily for 26 weeks. Participants were stratified by standard of care (SoC) IPF therapy (pirfenidone versus nintedanib versus none) and region (Japan versus Rest of World) at randomization.
The primary objective of the study was to determine the rate of change in ppFVC from baseline to Week 26. The primary objective was evaluated with a two estimand framework to handle the intercurrent event of dose reduction to 10 mg BID or matching PBO when pre-specified low BP criteria is met. The primary estimand is adopted to estimate treatment effect when dose reduction is implemented. The supplementary estimand is adopted to estimate the effect of treatment without dose reduction.
Analysis Strategy: The primary estimand was to evaluate the efficacy of Compound A at 30 mg or 60 mg twice daily, compared to PBO in IPF participants who met the enrollment criteria, with or without use of SoC. The rate of decline in ppFVC (%) from baseline to Week 26 was compared using the difference between each dose and PBO as a population level summary regardless of dose reduction or treatment discontinuation for any reason (treatment policy strategy).
Analysis Strategy: The supplementary estimand for the primary objective is to evaluate the efficacy of Compound A at 30 mg or 60 mg twice daily without dose reduction, compared to the PBO in IPF subjects who met the enrollment criteria, with or without use of SoC. The rate of decline in ppFVC (%) from baseline to Week 26 has been compared using the difference between each dose and PBO as a population level summary regardless of treatment discontinuation for any reason (treatment policy strategy). In the event of dose reduction, data collected after dose reduction will not be considered relevant to the treatment effect of interest and therefore, will be treated as missing (while-on-treatment strategy).

[1] = Phase 2 IPF cohort safety: adverse events, low blood pressure criteria, dose reductions
Procedure: as §1
Patient experiences any of the following, confirmed by retest within 15 minutes: • Seated systolic blood pressure <85 mmHg • Seated diastolic blood pressure <55 mmHg • Orthostatic hypotension
Patient experiences symptoms that, in the investigator's opinion, could be associated with a reduction in blood pressure and also experiences at least one of the following, confirmed by retest within 15 minutes: • Seated systolic blood pressure <100 mmHg or seated diastolic blood pressure <60 mmHg • Decrease of seated systolic blood pressure of ≥20 mmHg from the previous visit or decrease of seated diastolic blood pressure of ≥10 mmHg from the previous visit • Orthostatic hypotension • Orthostatic tachycardia

[2] = Phase 1 Part C MAD, blood pressure, healthy Japanese participants
Procedure: (§2) The study was performed in 3 parts in 112 healthy male and female participants, including 24 Japanese participants. Female participants were to be not of childbearing potential. The present study was designed to evaluate the safety and tolerability, PK, and exploratory PD of an oral suspension of Compound A. Parts A and B (Cohort B1 only) enrolled healthy participants and was conducted at a site in The Netherlands and Part B (Cohort B2 to B5) enrolled healthy non-Japanese participants and was conducted at a site in the United Kingdom (UK). Part C enrolled healthy Japanese participants and was conducted at the same site in the UK.
Part C was a MAD study in 3 sequential dose escalation cohorts (30 mg BID, 60 mg BID, and 90 mg BID) of 8 healthy Japanese participants (6 active+2 placebo) each. Eligible participants in Cohorts C1 to C3 received study drug (Compound A or placebo) administered orally for 14 days.
(§3) Physical examinations, vital sign measurements (including orthostasis testing in Cohort A6, Cohort B3 to B5, and C1 to C3 at selected time points), 12-lead electrocardiogram (ECG), and clinical laboratory evaluations were performed at selected times throughout the study. In addition, Holter monitoring was performed for the first 24 hours post dose on Day 1 in Part A (not in FE/pH cohort), and also for the first 24 hours post dose on Day 1 and Day 14 in Parts B and C. Participants were closely monitored for adverse events (AEs). Blood samples were collected for up to 14 days (follow-up visit) after (last) study drug administration for PK analysis. In addition, blood and urine were collected for exploratory biomarker assessments and for biobanking of samples for potential analyses. Urine was collected for potential PK analysis for up to 96 hours after a single dose of Compound A or placebo was administered in the SAD part, and for up to 24 hours after the first (morning) dose of study drug on Day 1 and for up to 24 hours after the last (morning) dose of study drug on Day 14 in the MAD parts.

[3] = Phase 1 Part B multiple ascending dose (MAD), blood pressure, healthy participants
Procedure: as §2
Part B was a MAD study in a planned number of 6 sequential dose escalation cohorts (10 mg QD, 30 mg QD, 30 mg BID, 60 mg BID, 125 mg BID, and ≤250 mg BID) of 8 healthy participants (6 active+2 placebo) each, under fasted conditions. However, Cohort B6 (≤250 mg BID) was cancelled because sufficient safety and PK data had been obtained at doses up to 125 mg BID. Eligible participants received study drug (Compound A or placebo) administered orally for 14 days.
as §3

[4] = Active Total (30 mg and 60 mg groups)

SMILES: CCCN(C)C(=O)OCc1c(-c2ccc(O[C@H]3CCC[C@H](C(=O)O)C3)c(C)n2)nnn1C [Compound A, (1S,3S)-3-((2-methyl-6-(1-methyl-5-(((methyl(propyl)carbamoyl)-oxy)methyl)-1H-1,2,3-triazol-4-yl)pyridin-3-yl)oxy)cyclohexane-1-carboxylic acid]
- Treatment differences in rates of change in ppFVC with and without background antifibrotic (participants with IPF; IPF cohort): consistent between both groups
- Efficacy vs PBO (participants with IPF; IPF, 30 mg BID, overall population): did not demonstrate efficacy compared to PBO
- Response by background SoC subgroup vs PBO (participants with IPF; IPF, 60 mg BID, SoC (nintedanib or pirfenidone) and no SoC): favorable responses on the primary endpoint; also recorded: favorable efficacy; also recorded: favorable impact on FVC compared with PBO when used alone or on background therapy with nintedanib or pirfenidone
- Treatment response (rate of decline of ppFVC and FVC) vs PBO (participants with IPF; IPF, 60 mg BID, Week 26, overall population): demonstrated favorable treatment responses versus PBO
- Slope difference (SE) in rate of decline in FVC, 60 mg - PBO (participants with IPF; IPF, 60 mg BID, baseline to Week 26, supplementary estimand, Overall): 61.4 (29.35) mL
- Relative treatment benefit (ppFVC decline) compared to PBO (participants with IPF; IPF, 60 mg BID, primary estimand, not on background SoC): 113%
- Relative treatment benefit (ppFVC decline) compared to PBO (participants with IPF; IPF, 60 mg BID, primary estimand, on background SoC): 39%
- Relative treatment benefit (ppFVC decline) compared to PBO (participants with IPF; IPF, 60 mg BID, supplementary estimand, not on background SoC): 123%
- Relative treatment benefit (ppFVC decline) compared to PBO (participants with IPF; IPF, 60 mg BID, supplementary estimand, on background SoC): 44%
- Dose reductions to 10 mg BID due to protocol-defined low BP criteria, % ([1]; 30 mg BID): 7.7%
- Dose reductions to 10 mg BID due to protocol-defined low BP criteria, % ([1]; 60 mg BID): 6.5%
- Risk of orthostatic intolerance, orthostatic hypotension or low BP criteria vs PBO ([1]; 60 mg BID): lowest frequencies of orthostatic intolerance, orthostatic hypotension, or pre-specified symptomatic or asymptomatic low BP criteria; also recorded: not associated with any increased risk of orthostatic intolerance, orthostatic hypotension, orthostatic tachycardia, or symptomatic or asymptomatic low BP
- Subjects discontinuing study treatment due to a TEAE, % [1, 4]: (8.2) %
- Subjects who died due to a TEAE, % [1, 4]: (3.8) %
- Subjects who died, % [1, 4]: (4.9) %
- Subjects with at least one AESI, % [1, 4]: (14.7) %
- Subjects with at least one TEAE related to the study treatment, % [1, 4]: (26.1) %
- Subjects with at least one TEAE, % [1, 4]: (75.0) %
- Subjects with at least one TESAE, % [1, 4]: (10.9) %
- Maximum of mean (±SD) reduction in SBP from baseline ([2]; Japanese MAD 30 mg BID (C1)): 15.0 ± 6.84 mmHg
- Time of maximum mean SBP reduction ([2]; Japanese MAD 30 mg BID (C1)): 1-4 Day-h
- Time of maximum mean DBP reduction ([2]; Japanese MAD 90 mg BID (C2)): 1-6 Day-h
- Time of maximum mean SBP reduction ([2]; Japanese MAD 90 mg BID (C2)): 1-6 Day-h
- Reductions in mean BP ([2]; Japanese MAD cohorts): no clear Compound A dose-dependent BP reduction trend
- Mean DBP ([3]; MAD 60 mg BID, D 14 320 h): 63 mmHg
- Mean DBP ([3]; MAD 125 mg BID, D 15 336 h): 63 mmHg
- Reductions in BP vs placebo ([3]; MAD BID groups): no clear differences between placebo and the Compound A groups
- Reductions in mean SBP and DBP ([3]; MAD QD groups): reductions generally occurred in a Compound A dose-dependent manner
